# Results published in patent publication US11998532B1 (priority 2023, dated 2024).
# Test system: Susceptible (H37Rv) strain of Mycobacterium tuberculosis
# Assay: Resazurin Microplate Assay (REMA), anti-tubercular activity, H37Rv
# Format: cell-based
# Settings: 192 h, read-out: MIC Susceptible (H37Rv)
row,SMILES,MIC [µg/mL]
1,"COc1ccc(Cl)cc1-n1ncc(-c2nnc(-c3ccc(C)c(Br)c3)o2)c1C [Compound 7c, 2-(3-Bromo-4-methylphenyl)-5-(1-(5-chloro-2-methoxyphenyl)-5-methyl-1H-pyrazol-4-yl)-1,3,4-oxadiazole]",16
2,"COc1ccc(Cl)cc1-n1ncc(-c2nnc(-c3cccc(F)c3)o2)c1C [Compound 7g, 2-(1-(5-Chloro-2-methoxyphenyl)-5-methyl-1H-pyrazol-4-yl)-5-(3-fluorophenyl)-1,3,4-oxadiazole]",8
3,"COc1ccc(Cl)cc1-n1ncc(-c2nnc(-c3ccc(Cl)cc3)o2)c1C [Compound 7a, 2-(1-(5-Chloro-2-methoxyphenyl)-5-methyl-1H-pyrazol-4-yl)-5-(4-chlorophenyl)-1,3,4-oxadiazole]",4
4,"COc1ccc(Cl)cc1-n1ncc(-c2nnc(-c3ccccc3)o2)c1C [Compound 7d, 2-(1-(5-Chloro-2-methoxyphenyl)-5-methyl-1H-pyrazol-4-yl)-5-phenyl-1,3,4-oxadiazole]",16
5,"COc1ccc(Cl)cc1-n1ncc(-c2nnc(-c3ccc(F)cc3)o2)c1C [Compound 7b, 2-(1-(5-Chloro-2-methoxyphenyl)-5-methyl-1H-pyrazol-4-yl)-5-(4-fluorophenyl)-1,3,4-oxadiazole]",4
6,"COc1ccc(Cl)cc1-n1ncc(-c2nnc(-c3ccc(C)c([N+](=O)[O-])c3)o2)c1C [Compound 7j, 2-(1-(5-Chloro-2-methoxyphenyl)-5-methyl-1H-pyrazol-4-yl)-5-(4-methyl-3-nitrophenyl)-1,3,4-oxadiazole]",32
7,"COc1ccc(Cl)cc1-n1ncc(-c2nnc(-c3ccc(Br)c(C)c3)o2)c1C [Compound 7f, 2-(4-Bromo-3-methylphenyl)-5-(1-(5-chloro-2-methoxyphenyl)-5-methyl-1H-pyrazol-4-yl)-1,3,4-oxadiazole]",32
8,"COc1ccc(Cl)cc1-n1ncc(-c2nnc(-c3ccc(Br)cc3)o2)c1C [Compound 7e, 2-(4-Bromophenyl)-5-(1-(5-chloro-2-methoxyphenyl)-5-methyl-1H-pyrazol-4-yl)-1,3,4-oxadiazole]",8
9,"COc1ccc(Cl)cc1-n1ncc(-c2nnc(-c3cc(Cl)cc(Cl)c3)o2)c1C [Compound 7h, 2-(1-(5-Chloro-2-methoxyphenyl)-5-methyl-1H-pyrazol-4-yl)-5-(3,5-dichlorophenyl)-1,3,4-oxadiazole]",4
10,"COc1ccc(Cl)cc1-n1ncc(-c2nnc(-c3ccc(Cl)c(Cl)c3)o2)c1C [Compound 7i, 2-(1-(5-Chloro-2-methoxyphenyl)-5-methyl-1H-pyrazol-4-yl)-5-(3,4-dichlorophenyl)-1,3,4-oxadiazole]",16
